Test results published in patent US11414429B2, “Compound or pharmaceutically acceptable salt thereof” (RIKEN, priority 2016, dated 2022).
Where two headings read alike, the source gives them in different places.

What was measured:
[1] = biological target: T1, tankyrase 2 (TNKS 2) (Homo sapiens, UniProt Q9H2K2); assay: Tankyrase inhibitory activity test (ELISA, self-polyADP ribosylation), tankyrase 2; assay type: biochemical
T1 construct: 613-1, 116aa; made in house; host or cells: cell-free protein synthesis system
Method in brief: (§1)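 IC50 was fitted to residual self-polyADP-ribosylation activity, detected by HRP-streptavidin chemiluminescence. Plate-bound Flag fusions (TNKS1 1,024-1,327aa SAM+PARP; TNKS2 613-1,116aa ANK5+SAM+PARP, cell-free synthesized) saw compound for 10 min at room temperature in 50 mM Tris-HCl pH 8.0, 4 mM MgCl2, 0.2 mM DTT. Reaction with 225 μM NAD/25 μM 6-biotin-17-NAD solution ran 45 min at 30 °C.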

[2] = test system: human colorectal cancer cell line, COLO-320DM; assay: Cell proliferation inhibitory activity test (Celltiter-Glo Luminescent Cell Viability Assay); assay type: cell-based; conditions: COLO-320DM cells, 96 hours, class symbols, read-out: COLO-320 DM (cell proliferation inhibitory activity, GI50 value)
Method in brief: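 GI50 is taken as the concentration halving cell growth versus 1% DMSO control, measured by ATP luminescence. Compound exposure lasted 96 h at 37° C. under 5% CO2, after overnight seeding in RPMI-1640 with 10% FBS and 2 mM glutamine.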

[3] = biological target: T2, tankyrase 1 (TNKS 1) (Homo sapiens, UniProt O95271); assay: Tankyrase inhibitory activity test (ELISA, self-polyADP ribosylation), tankyrase 1; assay type: biochemical
T2 construct: 1,024-1,327aa; made in house; host or cells: cell-free protein synthesis system
Method in brief: as §1

[4] = ELISA, self-polyADP ribosylation, class symbols, read-out: TNKS2 (inhibitory activity against tankyrase 2, IC50 value)
[5] = ELISA, self-polyADP ribosylation, class symbols, read-out: TNKS1 (inhibitory activity against tankyrase 1, IC50 value)

T1 sequence (Q9H2K2 613-1166): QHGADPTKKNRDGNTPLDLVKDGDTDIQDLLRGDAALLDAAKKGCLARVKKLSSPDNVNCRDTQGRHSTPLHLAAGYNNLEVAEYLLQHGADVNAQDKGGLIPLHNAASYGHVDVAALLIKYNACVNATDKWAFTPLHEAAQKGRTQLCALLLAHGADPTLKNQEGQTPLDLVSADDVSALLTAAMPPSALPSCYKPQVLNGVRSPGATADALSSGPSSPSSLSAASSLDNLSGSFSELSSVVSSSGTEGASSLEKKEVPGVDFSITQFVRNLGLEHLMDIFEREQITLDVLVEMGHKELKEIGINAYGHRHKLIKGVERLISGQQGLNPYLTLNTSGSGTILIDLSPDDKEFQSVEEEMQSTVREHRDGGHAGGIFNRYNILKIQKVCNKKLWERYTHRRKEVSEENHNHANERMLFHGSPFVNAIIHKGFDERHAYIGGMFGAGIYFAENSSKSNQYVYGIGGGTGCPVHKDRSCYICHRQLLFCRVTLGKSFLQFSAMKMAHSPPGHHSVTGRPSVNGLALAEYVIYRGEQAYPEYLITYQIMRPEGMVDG
T2 sequence (O95271 1024-1327): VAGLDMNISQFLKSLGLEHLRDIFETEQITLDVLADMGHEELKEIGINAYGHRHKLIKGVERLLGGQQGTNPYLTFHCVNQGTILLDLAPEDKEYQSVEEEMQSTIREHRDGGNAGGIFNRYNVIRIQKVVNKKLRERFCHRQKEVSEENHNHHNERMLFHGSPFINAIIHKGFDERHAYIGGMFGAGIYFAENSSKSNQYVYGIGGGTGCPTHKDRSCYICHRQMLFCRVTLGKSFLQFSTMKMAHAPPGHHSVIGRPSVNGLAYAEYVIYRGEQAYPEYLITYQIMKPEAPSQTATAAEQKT

SMILES | IC50 [1, 4] [nM] | GI50 [2] [nM] | IC50 [3, 5] [nM] | IC50 [1] [nM] | IC50 [3] [nM]
CN1CCCc2c1nc(N1CCC3(CC1)OC(=O)c1cc(N4CCN(CC(C)(C)O)CC4)cc(F)c13)[nH]c2=O [Example 439, 4-fluoro-1′-(4-hydroxy-8-methyl-6,7-dihydro-5H-pyrido[2,3-d]pyrimidin-2-yl)-6-[4-(2-hydroxy-2-methyl-propyl)piperazin-1-yl] spiro[2,3-benzofuran-3,4′-piperidine]-1-one] | < 20 | 100 to 600 | < 20 |  | 
COc1ccc(Cl)c2c1N(CCN1CCN(C(C)=O)CC1)C(=O)C21CCN(c2nc3c(c(=O)[nH]2)CCCN3C)CC1 [Example 441, 1-[2-(4-acetylpiper-azin-1-yl)ethyl]-4-chloro-1′-(4-hy-droxy-8-methyl-6,7-dihydro-5H-py-rido[2,3-d]pyrimi-din-2-yl)-7-methoxy-spiro[indole-3,4′-piperidine]-2-one] | < 20 | 100 to 600 | 20 to 200 |  | 
COc1ccc(Cl)c2c1N(CC(F)(F)F)C(=O)C21CCN(c2nc3c(c(=O)[nH]2)CCCN3)CC1 [Example 443, 4-chloro-1′-(4-hy-droxy-3,5,6,7,8-tetra-hydropyrido[2,3-d]pyrimidin-2-yl)-7-methoxy-1-(2,2,2-trifluoroeth-yl)spiro[indole-3,4′-piperidine]-2-one] | < 20 | 600 to 1000 | < 20 |  | 
CN1CCN(c2ccc(-c3cc(F)c4c(c3)C(=O)OC43CCN(c4nc5c(c(=O)[nH]4)CCCN5C)CC3)cc2)CC1 [Example 444, 4-fluoro-1′-(4-hy-droxy-8-methyl-6,7-dihydro-5H-pyrido [2,3-d]pyrimidin-2-yl)-6-[4-(4-meth-ylpiperazin-1-yl)phenyl]spiro[2-benzofuran-3,4′-piperidine]-1-one] | 20 to 200 | 100 to 600 | 20 to 200 |  | 
COc1ccc(Cl)c2c1N(CCC(=O)N1CCn3c(C(F)(F)F)cnc3C1)C(=O)C21CCN(c2nc3c(c(=O)[nH]2)CCCN3C)CC1 [Example 445, 4-chloro-1′-(4-hy-droxy-8-methyl-6,7-dihdyro-5H-py-rido[2,3-d]pyrimi-din-2-yl)-7-meth-oxy-1-[3-oxo-3-[3-(trifluoromethyl)-6,8-dihydro-5H-imidazo[1,2-a]py-razin-7-yl]propyl] spiro[indole-3,4′-piperidine]-2-one] | < 20 | 100 to 600 | < 20 |  | 
COc1ccc(Cl)c2c1N(CC(C)(C)O)C(=O)C21CCN(c2nc3c(c(=O)[nH]2)CCCN3C)CC1 [Example 446, 4-chloro-1′-(4-hy-droxy-8-methyl-6,7-dihydro-5H-py-rido[2,3-d]pyrimi-din-2-yl)-1-(2-hy-droxy-2-methyl-propyl)-7-methoxy-spiro[indole-3,4′-piperidine]-2-one] | < 20 | < 100 | < 20 |  | 
CN1CCCc2c1nc(N1CCC3(CC1)C(=O)N(CC(C)(C)O)c1cccc(F)c13)[nH]c2=O [Example 447, 4-fluoro-1′-(4-hy-droxy-8-methyl-6,7-dihydro-5H-py-rido[2,3-d]pyrimidin-2-yl)-1-(2-hydroxy-2-methylpro-pyl)spiro[indole-3,4′-piperidine]-2-one] | < 20 | < 100 | < 20 |  | 
COc1ccc(Cl)c2c1N(CC(C)(C)O)C(=O)C21CCN(c2nc3c(c(=O)[nH]2)CCCN3)CC1 [Example 448] | < 20 | 100 to 600 | < 20 |  | 
CNS(=O)(=O)COc1cc(F)c2c(c1)N(C)C(=O)C21CCN(c2nc3c(c(=O)[nH]2)CCCN3C)CC1 [Example 453, 1-{[4-fluoro-1-meth-yl-1′-(8-methyl-4-oxo-3,4,5,6,7,8-hexahydropyrido [2,3-d]pyrimidin-2-yl)-2-oxospiro [indole-3,4′-piperi-dine]-6-yl]oxy}-N-methylmethane sulfonamide] | < 20 | 100 to 600 | < 20 |  | 
CN1CCCc2c1nc(N1CCC3(CC1)C(=O)N(C)c1cc(N4CCS(=O)(=O)CC4)cc(F)c13)[nH]c2=O [Example 455, 6-(1,1-dioxdothio-morpholino)-4-fluoro-1-methyl-1′-(8-methyl-4-oxo-3,4,5,6,7,8-hexa-hydropyrido[2,3-d]pyrimidin-2-yl)spiro [indole-3,4′-piperi-dine]-2-one] | < 20 | 100 to 600 | < 20 |  | 
CC(=O)NS(=O)(=O)COc1cc(F)c2c(c1)N(C)C(=O)C21CCN(c2nc3c(c(=O)[nH]2)CCCN3C)CC1 [Example 456, N-[[4-fluoro-1-meth-yl-1′-(8-methyl-4-oxo-3,4,5,6,7,8-hexahydropyrido [2,3-d]pyrimidin-2-yl)-2-oxospiro [indole-3,4′-piperi-dine]-6-yl]oxymeth-ylsulfonyl]aceta-mide] | < 20 | 100 to 600 | < 20 |  | 
CN1CCCc2c1nc(N1CCC3(CC1)C(=O)N(C)c1cc(N4CCN(S(=O)(=O)N(C)C)CC4)cc(F)c13)[nH]c2=O [Example 458, 4-[4-fluoro-1-meth-yl-1′-(8-methyl-4-oxo-3,4,5,6,7,8-hexahydropyrido [2,3-d]pyrimidin-2-yl)-2-oxospiro [indole-3,4′-piperi-dine]-6-yl]-N,N-di-methylpiperazine-1-sulfonamide] | < 20 | 100 to 600 | 20 to 200 |  | 
CN1CCCc2c1nc(N1CCC3(CC1)C(=O)N(C)c1cc(N4CC(=O)N(Cc5ccccc5)C(=O)C4)cc(F)c13)[nH]c2=O [Example 459, 1-benzyl-4-[4-fluoro-1-methyl-1′-(8-methyl-4-oxo-3,4,5,6,7,8-hexa-hydropyrido[2,3-d]pyrimidin-2-yl)-2-oxospiro[indole-3,4′-piperidine]-6-yl]piperazine-2,6-dione] | 20 to 200 | 100 to 600 | 20 to 200 |  | 

More lines, now with the values ahead:

IC50 [1, 4] [nM] | GI50 [2] [nM] | IC50 [3, 5] [nM] | IC50 [1] [nM] | IC50 [3] [nM] | SMILES
< 20 | 100 to 600 | < 20 |  |  | CN1CCCc2c1nc(N1CCC3(CC1)OC(=O)c1cc(N4CCN(CCO)CC4)cc(F)c13)[nH]c2=O [Example 440, 4-fluoro-6-[4-(2-hydroxyethyl)piper-azin-1-yl]-1′-(4-hydroxy-8-methyl-6,7-dihydro-5H-pyrido[2,3-d]pyrimi-din-2-yl)spiro[2-benzofuran-3,4′-piperidine]-1-one]
 | 600 to 1000 |  | 20 to 200 | 20 to 200 | CN1CCCc2c1nc(N1CCC3(CC1)C(=O)N(C)c1cc(OCP(=O)(O)O)cc(F)c13)[nH]c2=O [Example 442, ({[4-fluoro-1-methyl-1′-(8-methyl-4-oxo-3,4,5,6,7,8-hexahydropyrido[2,3-d]pyrimidin-2-yl)-2-oxospiro[indoline-3,4′-piperidine]-6-yl]oxy}methyl) phosphonic Acid]
20 to 200 | 100 to 600 | 20 to 200 |  |  | CN(C)c1ccc(-c2cc(F)c3c(c2)C(=O)OC32CCN(c3nc4c(c(=O)[nH]3)CCCN4C)CC2)cc1 [Example 449, 6-[4-(dimethylami-no)phenyl]-4-fluoro-1′-(4-hydroxy-8-methyl-6,7-di-hydro-5H-pyrido[2,3-d]pyrimidin-2-yl)spiro[2-benzo-furan-3,4′-piperidine]-1-one]
< 20 | < 100 | < 20 |  |  | CN1CCCc2c1nc(N1CCC3(CC1)OC(=O)c1cc(-c4cnn(C)c4)cc(F)c13)[nH]c2=O [Example 450, 4-fluoro-1′-(4-hy-droxy-8-methyl-6,7-dihydro-5H-py-rido[2,3-d]pyrimidin-2-yl)-6-(1-meth-ylpyrazol-4-yl)spiro [2-benzofuran-3,4′-piperidine]-1-one]
< 20 | 100 to 600 | < 20 |  |  | O=C1N(CC(F)(F)F)c2cccc(F)c2C12CCN(c1nc3c(c(=O)[nH]1)CCCN3)CC2 [Example 451, 4-fluoro-1′-(4-hy-droxy-5,6,7,8-tetra-hydropyrido[2,3-d]pyrimidin-2-yl)-1-(2,2,2-trifluoro-ethyl)spiro[indole-3,4′-piperidine]-2-one]
< 20 | 100 to 600 | 20 to 200 |  |  | CC(C)(O)CN1C(=O)C2(CCN(c3nc4c(c(=O)[nH]3)CCCN4)CC2)c2c(F)cccc21 [Example 452, 4-fluoro-1-(2-hy-droxy-2-methyl-propyl)-1′-(4-hydroxy-5,6,7,8-tetra-hydropyrido[2,3-d]pyrimidin-2-yl)spiro [indole-3,4′-piper-idine]-2-one]
< 20 | 100 to 600 | < 20 |  |  | CN1CCCc2c1nc(N1CCC3(CC1)C(=O)N(C)c1cc(OCS(N)(=O)=O)cc(F)c13)[nH]c2=O [Example 454, 1-{[4-fluoro-1-meth-yl-1′-(8-methyl-4-oxo-3,4,5,6,7,8-hexahydropyrido [2,3-d]pyrimidin-2-yl)-2-oxospiro[indole-3,4′-piperidine]-6-yl]oxy}meth-anesulfonamide]
20 to 200 | 600 to 1000 | 20 to 200 |  |  | CN1CCCc2c1nc(N1CCC3(CC1)C(=O)N(C)c1cc(N4CCNCC4)cc(F)c13)[nH]c2=O [Example 457, 4-fluoro-1-methyl-1′-(8-methyl-4-oxo-3,4,5,6,7,8-hexahydropyrido [2,3-d]pyrimidin-2-yl)-6-piperazin-1-yl-spiro[indole-3,4′-piperidine]-2(1H)-one]
